These results are taken from patent publication US20030215462A1, “Use of UGT inhibitors to increase bioavailability” (priority 2001, published 2003).

Each structure is given as a SMILES string. “And” between values parts separate entries of the source, which are not always exact repeats. Equal entries are not always repeated.

As usually defined, the Km is the concentration of substrate that gives half-maximal velocity.

In data set [1] the target is T1, UGT1A8 (Homo sapiens, UniProt Q9HAW9).
T1 sequence (Q9HAW9 26-530): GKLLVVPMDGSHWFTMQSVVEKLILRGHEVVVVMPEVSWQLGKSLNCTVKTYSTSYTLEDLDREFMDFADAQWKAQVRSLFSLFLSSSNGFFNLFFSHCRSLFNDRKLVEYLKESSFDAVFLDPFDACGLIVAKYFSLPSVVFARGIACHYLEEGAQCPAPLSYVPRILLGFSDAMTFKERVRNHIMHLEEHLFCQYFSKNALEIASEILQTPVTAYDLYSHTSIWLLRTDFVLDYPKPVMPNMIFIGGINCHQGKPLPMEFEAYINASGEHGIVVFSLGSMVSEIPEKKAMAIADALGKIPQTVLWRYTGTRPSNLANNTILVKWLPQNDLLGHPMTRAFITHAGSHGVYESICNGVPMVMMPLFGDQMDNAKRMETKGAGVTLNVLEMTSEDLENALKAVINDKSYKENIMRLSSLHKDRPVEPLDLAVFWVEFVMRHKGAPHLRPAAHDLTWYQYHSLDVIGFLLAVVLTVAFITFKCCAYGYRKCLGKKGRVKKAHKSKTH
The experiment in a line: Inhibition of raloxifene glucuronidation by recombinant UGT1A8 Supersomes. As to conditions: inhibitor 50 μM; for activity at 15 min, 50 µM: human, Supersomes with recombinant human UGT1A8, pH 7.5, probe raloxifene 50 μM.
Experimental: (§2) Compounds were eluted using a binary solvent gradient system. Solvent A was water brought to pH 8 with NH4OH. Solvent B was methanol. Solvent flow rate was 1 ml/min and the column temperature was maintained at 50° C. Detection was at 280 nm. […] The system was then returned to the initial conditions and equilibrated for 3 min.

For data set [2], the system named is T2, UGT enzymes of human liver microsomes.
T2 construct: percentage of control metabolism, 7-HFC glucuronidation; percentage of control metabolism, 7-HFC glucuronidation
The experiment in a line: Kinetic and Ki studies of inhibitors of 7-HFC glucuronidation in human liver microsomes. Conditions: 7-HFC 20-500 μM; for Km: read-out: Km of 7-HFC glucuronidation (fit of the experiment with this inhibitor). The class given is biochemical. (Microsomes from liver hold many membrane-bound enzymes, among them those of drug oxidation.)

Data set [3] deals with T3, UGT1A1 (Homo sapiens, UniProt P22309).
T3 sequence (P22309 26-533): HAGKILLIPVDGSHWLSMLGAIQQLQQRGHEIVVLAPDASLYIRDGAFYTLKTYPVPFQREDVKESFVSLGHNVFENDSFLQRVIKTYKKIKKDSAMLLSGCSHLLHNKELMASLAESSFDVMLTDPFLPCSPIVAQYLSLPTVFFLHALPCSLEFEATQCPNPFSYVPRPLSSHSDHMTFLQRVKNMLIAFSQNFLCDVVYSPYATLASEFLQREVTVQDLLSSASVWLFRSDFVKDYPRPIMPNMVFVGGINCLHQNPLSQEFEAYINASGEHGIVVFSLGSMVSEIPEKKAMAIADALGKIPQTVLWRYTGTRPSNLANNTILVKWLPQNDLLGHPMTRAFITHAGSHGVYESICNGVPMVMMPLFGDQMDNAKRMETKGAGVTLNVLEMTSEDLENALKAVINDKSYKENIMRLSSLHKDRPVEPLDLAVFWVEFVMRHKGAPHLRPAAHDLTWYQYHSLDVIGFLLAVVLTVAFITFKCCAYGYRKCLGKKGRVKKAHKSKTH
The experiment in a line: Inhibition of raloxifene glucuronidation by recombinant UGT1A1 Supersomes. As to conditions: for % of control metabolism, raloxifene G1 / % of control metabolism, raloxifene G2: UGT1A1; for activity at 15 min / activity at 15 min, 25 µM / activity at 15 min, 50 µM: human.
Experimental: as §2

For data set [4], the system named is UGT enzymes of pooled human jejunum microsomes. Put plainly: Inhibition of estradiol (E2) glucuronidation in pooled human jejunum microsomes. The data set is classed as biochemical. As to conditions: jejunum HJ61; E2 50 μM; inhibitor 50 μM. An excerpt:
(§1) Compounds were eluted using a binary solvent gradient system where solvent A was dilute phosphoric acid (pH 3) and solvent B was 80:20 acetonitrile-methanol. […] Detection was at 280 nm.

Data set [5] deals with T4, UGT enzymes of human liver microsomes.
T4 construct: residual metabolism (% of control), E2-3-β-D-glucuronide; other: liver 032101; residual metabolism (% of control), E2-3-β-D-glucuronide
Put plainly: Inhibition of estradiol (E2) glucuronidation in human liver microsomes. The data set is classed as biochemical. Conditions: liver 032101; E2 50 μM; inhibitor 50 μM.
Text: as §1

The target of data set [6] is T5, UGT enzymes of human liver microsomes (Homo sapiens, UniProt P16662).
T5 construct: residual metabolism (percentage of control), zidovudine glucuronidation; other: liver lot 062101; residual metabolism (percentage of control), zidovudine glucuronidation; residual metabolism (percentage of control)
T5 sequence (P16662 1-529): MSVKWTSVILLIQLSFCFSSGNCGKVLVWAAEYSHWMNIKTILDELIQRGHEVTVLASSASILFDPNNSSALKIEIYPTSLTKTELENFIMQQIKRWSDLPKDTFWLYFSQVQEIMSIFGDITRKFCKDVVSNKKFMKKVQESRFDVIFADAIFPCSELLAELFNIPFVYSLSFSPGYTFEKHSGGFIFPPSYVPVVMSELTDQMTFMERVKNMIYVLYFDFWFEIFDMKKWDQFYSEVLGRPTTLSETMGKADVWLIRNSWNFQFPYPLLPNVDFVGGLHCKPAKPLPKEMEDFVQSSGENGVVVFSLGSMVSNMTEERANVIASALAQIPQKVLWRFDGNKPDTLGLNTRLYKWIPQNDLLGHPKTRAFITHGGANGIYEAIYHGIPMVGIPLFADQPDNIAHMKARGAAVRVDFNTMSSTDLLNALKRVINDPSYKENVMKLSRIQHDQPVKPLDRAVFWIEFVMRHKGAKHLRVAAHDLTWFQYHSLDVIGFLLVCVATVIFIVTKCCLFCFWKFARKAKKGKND
Put plainly: Inhibition of zidovudine glucuronidation in human liver microsomes. The data set is classed as biochemical. Conditions: liver lot 062101. The protocol: Compounds were eluted using a binary solvent gradient system where solvent A was dilute phosphoric acid (pH 3) and solvent B was acetonitrile.
Standardized incubations utilized 500 μM zidovudine substrate, 1 mg/ml microsomal protein, 5 mM UDPGA and a 30 min incubation time. […] Int.

Data set [7] has as its system T6, UGT enzymes of human liver microsomes.
T6 construct: residual metabolism (percentage of control), labetalol LG1; other: labetalol 50 μM; residual metabolism (percentage of control), labetalol LG1; residual metabolism (percentage of control), labetalol LG2; inhi
Put plainly: Inhibition of labetalol glucuronidation (LG1, LG2) in human liver microsomes. The data set is classed as biochemical. Conditions: labetalol 50 μM.

Where [8] appears, read: inhibitor 25 μM, raloxifene 50 μM, 250 μg/ml Supersomes, 1 mM UDPGA, 15 min.
[9] abbreviates: inhibitor 50 μM, raloxifene 50 μM, 250 μg/ml Supersomes, 1 mM UDPGA, 15 min.
The mark [10] stands for this setting: inhibitor column headed only "μM" (between 25 μM and 5 μM), raloxifene 50 μM, 250 μg/ml Supersomes, 1 mM UDPGA, 15 min.

In the case of `O=C(O[C@@H]1Cc2c(O)cc(O)cc2O[C@@H]1c1cc(O)c(O)c(O)c1)c1cc(O)c(O)c(O)c1` [Epigallocatechin gallate], the “% of control metabolism, raloxifene G1” value is 69 (3) % in data set [1] (UGT1A8), 44 (1) % in data set [3] (inhibitor 25 μM) and 21 (0) % in data set [3] (inhibitor 50 μM). The “% of control metabolism, raloxifene G2” value in data set [1] (UGT1A8) was 54 (2) %; in data set [3] (inhibitor 25 μM), 45 (1) %; in data set [3] (inhibitor 50 μM), 25 (1) %. Besides, the “Vmax of 7-HFC glucuronidation (fit of the experiment with this inhibitor)” value in data set [2] came out at 54 ± 3 nmol/min/mg. For the same molecule, in data set [2], the Km was determined as 75 ± 7 µM. The “Inhibition of raloxifene glucuronidation, G1, UGT1A1” value in data set [3] (setting [8]) is reported as 44 (1); in data set [3] (setting [9]), 21 (0); in data set [3] (setting [10]), 70 (1). The “Inhibition of raloxifene glucuronidation, G2, UGT1A1” value in data set [3] (setting [8]) was 45 (1); in data set [3] (setting [9]) it was 25 (1); in data set [3] (setting [10]), 74 (2). In addition, the “residual metabolism (% of control), E2-3-β-D-glucuronide” value in data set [4] is 32 (0) %; in data set [5] it was 46 (1) %. Moreover, the “residual metabolism (% of control), E2-17-β-D-glucuronide” value in data set [4] is 41 (4) %. In addition, the “residual metabolism (percentage of control), zidovudine glucuronidation” value in data set [6] (inhibitor 50 μM) is recorded as 70 (1) %; in data set [6] (inhibitor 100 μM) it was 60 (2) %; in data set [6] (inhibitor 200 μM), 39 (2) %; in data set [6] (inhibitor 500 μM), 18 (1) %. Further, the “residual metabolism (percentage of control), labetalol LG1” value in data set [7] (inhibitor 100 μM) was 55 (2) %. The “residual metabolism (percentage of control), labetalol LG2” value in data set [7] (inhibitor 100 μM) was 52 (5) %.
As to `O=C(O[C@@H]1Cc2c(O)cc(O)cc2O[C@H]1c1cc(O)c(O)c(O)c1)c1cc(O)c(O)c(O)c1` [Gallocatechin gallate], the activity at 15 min, 50 µM in data set [1] (formation of glucuronide G1, % of control metabolism, raloxifene G1, UGT1A8) was determined as 36%; in data set [1] (formation of glucuronide G2, % of control metabolism, raloxifene G2, UGT1A8) it was 35%; in data set [3] (Supersomes with recombinant human UGT1A1, pH 7.5, probe raloxifene 50 μM, formation of glucuronide G1, % of control metabolism, raloxifene G1, UGT1A1, inhibitor 50 μM) it was 30%; in data set [3] (Supersomes with recombinant human UGT1A1, pH 7.5, probe raloxifene 50 μM, formation of glucuronide G1, Inhibition of raloxifene glucuronidation, G1, UGT1A1, G1, inhibitor 50 μM, raloxifene 50 μM, 250 μg/ml Supersomes, 1 mM UDPGA, 15 min), 30%; in data set [3] (Supersomes with recombinant human UGT1A1, pH 7.5, probe raloxifene 50 μM, formation of glucuronide G2, % of control metabolism, raloxifene G2, UGT1A1, inhibitor 50 μM) it was 32%; in data set [3] (recombinant UGT1A1 Supersomes, pH 7.5, probe raloxifene 50 μM (formation of glucuronide G2), Inhibition of raloxifene glucuronidation, G2, UGT1A1, G2, inhibitor 50 μM, raloxifene 50 μM, 250 μg/ml Supersomes, 1 mM UDPGA, 15 min), 32%. In addition, the “Vmax of 7-HFC glucuronidation (fit of the experiment with this inhibitor)” value in data set [2] is recorded as 54 ± 3 nmol/min/mg. Besides, the Km in data set [2] worked out at 75 ± 7 µM. Besides, the activity at 15 min in data set [3] (Supersomes with recombinant human UGT1A1, pH 7.5, probe raloxifene 50 μM, formation of glucuronide G1) was 79%; in data set [3] (recombinant UGT1A1 Supersomes, pH 7.5, probe raloxifene 50 μM (formation of glucuronide G2)), 76%. The activity at 15 min, 25 µM in data set [3] (Supersomes with recombinant human UGT1A1, pH 7.5, probe raloxifene 50 μM, formation of glucuronide G1, % of control metabolism, raloxifene G1, UGT1A1, inhibitor 25 μM) turned out to be 52%; in data set [3] (Supersomes with recombinant human UGT1A1, pH 7.5, probe raloxifene 50 μM, formation of glucuronide G1, Inhibition of raloxifene glucuronidation, G1, UGT1A1, G1, inhibitor 25 μM, raloxifene 50 μM, 250 μg/ml Supersomes, 1 mM UDPGA, 15 min), 52%; in data set [3] (Supersomes with recombinant human UGT1A1, pH 7.5, probe raloxifene 50 μM, formation of glucuronide G2, % of control metabolism, raloxifene G2, UGT1A1, inhibitor 25 μM) it was 54%; in data set [3] (recombinant UGT1A1 Supersomes, pH 7.5, probe raloxifene 50 μM (formation of glucuronide G2), Inhibition of raloxifene glucuronidation, G2, UGT1A1, G2, inhibitor 25 μM, raloxifene 50 μM, 250 μg/ml Supersomes, 1 mM UDPGA, 15 min), 54%. Further, the “residual metabolism (% of control), E2-3-β-D-glucuronide” value in data set [4] is on record as 25 (1) %; in data set [5], 24 (1) %. For the same molecule, the “residual metabolism (% of control), E2-17-β-D-glucuronide” value in data set [4] is 39 (1) %. Besides, the “residual metabolism (percentage of control), zidovudine glucuronidation” value is 66 (3) % in data set [6] (inhibitor 50 μM); 56 (1) % and 59 (3) % in data set [6] (inhibitor 100 μM); 49 (1) % and 40 (2) % in data set [6] (inhibitor 200 μM). For the same molecule, the “residual metabolism (percentage of control), labetalol LG1” value in data set [7] (inhibitor 50 μM) is given as 60 (5) %. In addition, the “residual metabolism (percentage of control), labetalol LG2” value in data set [7] (inhibitor 50 μM) is recorded as 55 (8) %.
